Measured values: ChEMBL document CHEMBL1146678, “Inhibitors of multidrug resistance (MDR) have affinity for MDR substrates” (Bioorg Med Chem Lett, 2004)
Calls of active or inactive are those of the source. No cut-off for these calls is given here. Numbered stars: 1 amine (or outer) side, 2 acyl side, 3 side chain; on linkers, the order of the positions; unused ones are H or OH. Bridge positions count the residues as written; N and C are the ends. Square brackets hold non-standard residues; d marks the D form. Peptide text beside a SMILES is read from it. I, II: the chains in the order shown. Actinocin(9to1) = Cc1c2oc3c(C)ccc(C(=O)[*:1])c3nc-2c(C(=O)[*:2])c(N)c1=O; NMeV = CN[C@H](C(=O)O)C(C)C; Sar = CNCC(=O)O

Experiments:
[1] = Inhibitory concentration in presence of MDR inhibitor XR-9576; type: functional
[2] = Dose modifying factor expressed as the ratio of IC50 for the chemotherapy drug to IC50 for drug + GG918; Range = 1.2-1850; type: functional
[3] = Dose modifying factor expressed as the ratio of IC50 for the chemotherapy drug to IC50 for drug + GG918; Range = 1.0-23; type: functional
[4] = Relative resistance is the ratio of IC50 values of drug with JTV-519 to that without the reversing agent; type: functional
Lycopus europaeus = experiment: Inhibitory activity against Lycopus europeus; no inhibitory activity; type: functional, organism-based
[5] = Fold reduction in minimum inhibitory concentration of antibiotic in presence of GG918; type: functional
[6] = Fold reduction in minimum inhibitory concentration of antibiotic in presence of Reserpine; type: functional
A549 [7] = experiment: Synergism with indomethacin in A549 cells; type: functional
A549 [8] = experiment: Synergism with sulindac in A549 cells; type: functional
DLKP cell line [9] = experiment: Synergism with sulindac in DLKP cells; type: functional
DLKP cell line [10] = experiment: Synergism with tolmedin in DLKP cells; type: functional
NCI-H69 [11] = experiment: Percentage inhibition of cell growth in the presence of compound in H69/LX4 cells with Clofazemine as inhibitor; reversal of inhibition; type: functional, cell-based
NCI-H69 [12] = experiment: Percentage inhibition of cell growth in the presence of compound in H69/LX4 cells with as GG918 inhibitor; reversal of inhibition; type: functional, cell-based
NCI-H69 [13] = experiment: Percentage inhibition of cell growth in the presence of compound in H69/LX4 cells with B669 as inhibitor; reversal of inhibition; type: functional, cell-based
NCI-H69 [14] = experiment: Percentage inhibition of cell growth in the presence of compound in H69/LX4 cells with verapamil as inhibitor; reversal of inhibition; type: functional, cell-based
NCI-H69 [15] = experiment: Approximate percentage for level of inhibition of cell growth in presence and absence of inhibitor (Value of drug + Verapamil / Value of drug); type: functional
NCI-H69 [16] = experiment: Approximate percentage for level of inhibition of cell growth in presence and absence of inhibitor (Value of drug + alpha Tochoferol / Value of drug); type: functional
NCI-H69 [17] = experiment: Percentage inhibition of cell growth in the presence of compound and in the absence of […] in H69/LX4 cells with clofazimine MDR inhibitor; type: functional
[18] = Relative inhibition (IC50) in presence and absence of reserpine; type: functional
A549 [19] = experiment: Synergism with tolmetin in A549 cells; type: functional
NCI-H69 [20] = experiment: Approximate percentage for level of inhibition of cell growth in presence and absence of inhibitor (Value of drug + B669 / Value of drug); type: functional
NCI-H69 [21] = experiment: Approximate percentage for level of inhibition of cell growth in presence and absence of inhibitor (Value of drug + Clofazimine / Value of drug); type: functional
NCI-H69 [22] = experiment: Approximate percentage for level of inhibition of cell growth in presence and absence of inhibitor (Value of drug + GG918 / Value of drug); type: functional
[23] = Fold reduction in fluorescence in presence and absence of MC-002595 at 128 mg/mL; type: functional
A549 [24] = experiment: Antagonism of indomethacin in A549 cells; type: functional
A549 [25] = experiment: Antagonism of sulindac in A549 cells; type: functional
A549 [26] = experiment: Antagonism of tolmetin in A549 cells; type: functional
DLKP cell line [27] = experiment: Antagonism of indomethacin in DLKP cells; type: functional
DLKP cell line [28] = experiment: Antagonism of sulindac in DLKP cells; type: functional
[29] = Inhibitory activity in presence of VX-710 inhibitor; successful in clinical trials; type: functional
DLKP cell line [30] = experiment: Synergism with indomethacin in DLKP cells; type: functional

COc1cccc2c1C(=O)c1c(O)c3c(c(O)c1C2=O)C[C@@](O)(C(C)=O)C[C@@H]3O[C@H]1C[C@H](N)[C@H](O)[C@H](C)O1 [DAUNORUBICIN]
IC50 [1]: 38.2 nM

O=C1c2c(O)ccc(O)c2C(=O)c2c(NCCNCCO)ccc(NCCNCCO)c21
Ratio [2]: 1.2

CC[C@@]1(O)C(=O)OCc2c1cc1n(c2=O)Cc2cc3c(CN(C)C)c(O)ccc3nc2-1
Ratio [3]: 1

Cc1ccc(NC(=O)c2ccc(CN3CCN(C)CC3)cc2)cc1Nc1nccc(-c2cccnc2)n1
Ratio [4]: 3.1

CCn1cc(C(=O)O)c(=O)c2cc(F)c(N3CCNCC3)cc21
inhibition (Lycopus europaeus): inactive
Fold reduction [5]: 8
Fold reduction [6]: 4

CC[C@]1(O)C[C@H]2CN(CCc3c([nH]c4ccccc34)[C@@](C(=O)OC)(c3cc4c(cc3OC)N(C=O)[C@H]3[C@@](O)(C(=O)OC)[C@H](OC(C)=O)[C@]5(CC)C=CCN6CC[C@]43[C@@H]65)C2)C1 [VINCRISTINE]
Combination_index (A549 [7]): 0.301
Combination_index (A549 [8]): 0.462
Combination_index (DLKP cell line [9]): 0.241
Combination_index (DLKP cell line [10]): 0.593
Ratio [4]: 3.7

Cc1c(C)c2c(c(C)c1O)CC[C@@](C)(CCC[C@H](C)CCC[C@H](C)CCCC(C)C)O2
inhibition (NCI-H69 [11]): reversal of inhibition
inhibition (NCI-H69 [12]): reversal of inhibition
inhibition (NCI-H69 [13]): reversal of inhibition
inhibition (NCI-H69 [14]): reversal of inhibition

CC[C@]1(O)C[C@@H]2CN(CCc3c([nH]c4ccccc34)[C@@](C(=O)OC)(c3cc4c(cc3OC)N(C)[C@H]3[C@@](O)(C(=O)OC)[C@H](OC(C)=O)[C@]5(CC)C=CCN6CC[C@]43[C@@H]65)C2)C1 [VINBLASTINE]
Reduction (NCI-H69 [15]): ~88%
Reduction (NCI-H69 [16]): ~95%
Reduction (NCI-H69 [17]): ~94%
Fold increase [18]: 8

COc1cccc2c1C(=O)c1c(O)c3c(c(O)c1C2=O)C[C@@](O)(C(=O)CO)C[C@@H]3O[C@H]1C[C@H](N)[C@H](O)[C@H](C)O1 [DOXORUBICIN]
Combination_index (A549 [19]): 0.357
Combination_index (A549 [7]): 0.251
Combination_index (A549 [8]): 0.368
Combination_index (DLKP cell line [9]): 0.449
Combination_index (DLKP cell line [10]): 0.467
Reduction (NCI-H69 [20]): ~31%
Reduction (NCI-H69 [21]): ~40%
Reduction (NCI-H69 [22]): ~58%
Reduction (NCI-H69 [15]): ~33%
Reduction (NCI-H69 [16]): 0%
Fold increase [18]: 2.9

c1ccc(Nc2cccc3ccccc23)cc1
Fold reduction [23]: 2.3

COc1c(N2C[C@@H]3CCCN[C@@H]3C2)c(F)cc2c(=O)c(C(=O)O)cn(C3CC3)c12
Fold reduction [5]: 0
Fold reduction [6]: 2

Cc1c2oc3c(C)ccc(C(=O)N[C@@H]4C(=O)N[C@H](C(C)C)C(=O)N5CCC[C@H]5C(=O)N(C)CC(=O)N(C)[C@@H](C(C)C)C(=O)O[C@@H]4C)c3nc-2c(C(=O)N[C@@H]2C(=O)N[C@H](C(C)C)C(=O)N3CCC[C@H]3C(=O)N(C)CC(=O)N(C)[C@@H](C(C)C)C(=O)O[C@@H]2C)c(N)c1=O (I: T[dV]P[Sar][NMeV] / II: T[dV]P[Sar][NMeV]; ester I:1-I:C, II:1-II:C; linker I:N-II:N via Actinocin(9to1))
Ratio [4]: 3

O=C(O)c1cn(C2CC2)c2cc(N3CCNCC3)c(F)cc2c1=O
Fold reduction [5]: 8
Fold reduction [6]: 8

CC(=O)O[C@H]1C(=O)[C@@]2(C)[C@H]([C@H](OC(=O)c3ccccc3)[C@]3(O)C[C@H](OC(=O)[C@H](O)[C@@H](NC(=O)c4ccccc4)c4ccccc4)C(C)=C1C3(C)C)[C@]1(OC(C)=O)CO[C@@H]1C[C@@H]2O [PACLITAXEL]
Combination_index (A549 [24]): 2.234
Combination_index (A549 [25]): 1.539
Combination_index (A549 [26]): 1.349
Combination_index (DLKP cell line [27]): 1.227
Combination_index (DLKP cell line [28]): 1.233
inhibition [29]: Active

COc1cc([C@@H]2c3cc4c(cc3[C@@H](O[C@@H]3O[C@@H]5CO[C@@H](C)O[C@H]5[C@H](O)[C@H]3O)[C@H]3COC(=O)[C@H]23)OCO4)cc(OC)c1O [ETOPOSIDE]
Combination_index (A549 [7]): 0.916
Combination_index (A549 [8]): 0.681
Combination_index (DLKP cell line [9]): 0.463
Combination_index (DLKP cell line [10]): 0.745
Ratio [4]: 2.6
Combination_index (DLKP cell line [30]): 0.534
